≈ marks a conversion by molar mass, not a printed value. Like-named read-outs stand apart in the source and are kept apart here.
Key:
[1] = test system: human melanoma cancer (SKMEL-2); experiment: Cytotoxicity, SRB assay, SKMEL-2 cells; format: cell-based; conditions: 50% reduction in adsorbance at 562 nm relative to untreated cells
Experimental: (§1) Compounds 2-4 and 9-12 were evaluated in a tubulin polymerization assay and for cytotoxicity. Tubulin polymerization assays were performed as described in Y. Xia et al., J. Med. Chem. 1998, 41, 1155. Cytotoxic assays were performed as described in L. Rubinstein et al., J. Natl. Cancer Inst. 1990, 82, 1113-8.

[2] = test system: human ovarian cancer (1A9); experiment: Cytotoxicity, SRB assay, 1A9 cells; format: cell-based; conditions: 50% reduction in adsorbance at 562 nm relative to untreated cells
Experimental: (§2) Cytotoxic assays were performed as described in L. Rubinstein et al., J. Natl. Cancer Inst.

[3] = test system: glioblastoma carcinoma (U-87-MG); experiment: Cytotoxicity, SRB assay, U-87-MG cells; format: cell-based, human; conditions: 50% reduction in adsorbance at 562 nm relative to untreated cells
Experimental: as §1

tubulin polymerization = experiment: Tubulin polymerization assay (ITP); format: biochemical; conditions: for IC50: concentration that inhibits the extent of assembly by 50% after 20 min at 30° C.
Experimental: as §1

human lung cancer (A549) = experiment: Cytotoxicity, SRB assay, A549 cells; format: cell-based; conditions: 50% reduction in adsorbance at 562 nm relative to untreated cells
Experimental: as §1

[4] = test system: human breast cancer (MCF-7); experiment: Cytotoxicity, SRB assay, MCF-7 cells; format: cell-based; conditions: 50% reduction in adsorbance at 562 nm relative to untreated cells
Experimental: as §1

bone carcinoma (HOS) = experiment: Cytotoxicity, SRB assay, HOS cells; format: cell-based, human; conditions: 50% reduction in adsorbance at 562 nm relative to untreated cells
Experimental: as §1

[5] = test system: human epidermoid carcinoma of the nasopharynx (KB); experiment: Cytotoxicity, SRB assay, KB cells; format: cell-based; conditions: for ED50 KB: SRB assay, 50% reduction in adsorbance at 562 nm relative to untreated cells; for number in parentheses after the ED50 bound, KB: not defined in the patent, stands after the highest concentration (>20 or >10 μg/mL)
Experimental: as §1

[6] = test system: xenograft ovarian OVCAR-3; conditions: treated mice, xenograft ovarian OVCAR-3 model; cited from earlier work
[7] = test system: seven human tumor cell lines; experiment: Cytotoxicity against seven human tumor cell lines (panel); format: cell-based; conditions: seven human tumor cell lines: epidermoid, bone, ovarian, glioblastoma, melanoma, lung, breast
Experimental: as §2

Molecule	ED50 SKMEL-2 [1]	ED50 1A9 [2]	ED50 U87-MG [3]	IC50 (tubulin polymerization)	ED50 A549 (human lung cancer (A549))	ED50 MCF-7 [4]	ED50 HOS (bone carcinoma (HOS))	ED50 KB [5]	number in parentheses after the ED50 bound, KB [5]	increase in life span [6]	activity in the tubulin polymerization assay (in words) (tubulin polymerization)	melting point	fold more active in the tubulin polymerization assay (tubulin polymerization; compound 10 relative to the inactive 9 and 12 (IC50>40 μM))	cytotoxicity in vitro (in words) [7]	activity in the tubulin polymerization assay (in words) (tubulin polymerization; listed as 2-Phenyl-4-quinolone-8-acetic acid)
2-Phenyl-4-quinolone-6-acetic acid [Compound 3]	> 20 µg/mL	> 20 µg/mL	> 20 µg/mL	10 to 20 µM	> 20 µg/mL	> 20 µg/mL	> 20 µg/mL	> 20 µg/mL	36	–	–	–	–	–	–
O=c1cc(-c2ccccc2F)[nH]c2cc3c(cc12)OCO3 [Compound 1]	–	–	–	–	–	–	–	–	–	130%	–	–	–	–	–
O=C(O)Cc1cccc2[nH]c(-c3ccccc3F)cc(=O)c12 [Compound 2]	> 20 µg/mL	–	–	> 40 µM	> 20 µg/mL	> 20 µg/mL	–	–	–	–	totally inactive	–	–	–	–
O=C(O)Cc1ccc2c(=O)cc(-c3ccccc3F)[nH]c2c1 [Compound 4]	> 20 µg/mL	> 20 µg/mL	–	20 to 40 µM	> 20 µg/mL	> 20 µg/mL	–	> 20 µg/mL	8	–	totally inactive	–	–	–	–
COC(=O)Cc1cccc2c(=O)cc(-c3ccccc3)[nH]c12 [Compound 9, 2-Phenyl-4-quinolone-8-methyl acetate]	> 20 µg/mL	> 20 µg/mL	–	> 40 µM	–	> 20 µg/mL	> 20 µg/mL	> 20 µg/mL	8	–	–	76 to 78 °C	–	–	–
COC(=O)Cc1cccc2c(O)cc(-c3ccccc3F)nc12 [Compound 10]	> 10 µg/mL	7.50 µg/mL (≈ 24.1 µM)	–	~10 µM	> 10 µg/mL	> 10 µg/mL	> 10 µg/mL	> 10 µg/mL	29	–	–	–	about 4 fold	selective activity against ovarian cancers	–
O=C(O)Cc1cccc2c1N=C(c1ccccc1)CC2=O [Compound 11, 2-Phenyl-4-quinolone-8-acetic acid]	0.06 µg/mL (≈ 0.215 µM)	0.04 µg/mL (≈ 0.143 µM)	0.12 µg/mL (≈ 0.43 µM)	> 40 µM	0.11 µg/mL (≈ 0.394 µM)	0.44 µg/mL (≈ 1.58 µM)	0.07 µg/mL (≈ 0.251 µM)	0.04 µg/mL (≈ 0.143 µM)	–	–	totally inactive	–	–	extremely potent	not inhibitors of tubulin polymerization
O=C(O)Cc1cccc2c1N=C(c1ccccc1F)CC2=O [Compound 12, 2-(2′-Fluorophenyl)-4-quinolone-8-acetic acid]	0.05 µg/mL (≈ 0.168 µM)	0.02 µg/mL (≈ 0.0673 µM)	0.07 µg/mL (≈ 0.235 µM)	> 40 µM	0.06 µg/mL (≈ 0.202 µM)	0.12 µg/mL (≈ 0.404 µM)	0.04 µg/mL (≈ 0.135 µM)	0.03 µg/mL (≈ 0.101 µM)	–	–	not inhibitors of tubulin polymerization	243 to 245 °C	–	extremely potent	–
